Experimental data: patent US11160797B2, “Pyridinone derivatives and their use as selective ALK-2 inhibitors” (NOVARTIS AG, priority 2017, dated 2021)

Experiments:
[1] = target: T1, wild-type ALK2 (aa172-499) (Homo sapiens (Human), UniProt Q04771); experiment: ADPGlo biochemical autophosphorylation assay, ALK2; details: 15 uM ATP
ALK3 (aa198-525) = ALK3 (aa198-525) (Homo sapiens (Human), UniProt P36894); experiment: ADPGlo biochemical autophosphorylation assay, ALK3; details: 15 uM ATP
[2] = target: T1, wild-type ALK2 (aa172-499); experiment: Caliper biochemical peptide phosphorylation assay, ALK2; details: Caliper peptide phosphorylation, 15 uM ATP; read-out: ALK2 IC50
[3] = target: ALK2 FOP mutant (aa172-499 R206H) (Homo sapiens (Human), UniProt Q04771, R206H); experiment: Caliper biochemical peptide phosphorylation assay, ALK2 FOP; details: Caliper peptide phosphorylation, R206H, 15 uM ATP; read-out: ALK2 FOP EPK IC50
ALK1 (aa166-493) = ALK1 (aa166-493) (Homo sapiens (Human), UniProt P37023); experiment: Caliper biochemical peptide phosphorylation assay, ALK1; details: 15 uM ATP
ALK5 (aa162-503) = ALK5 (aa162-503) (Homo sapiens (Human), UniProt P36897); experiment: Caliper biochemical peptide phosphorylation assay, ALK5; details: 15 uM ATP
From the text: For all biochemical assays, human recombinant proteins were expressed in and purified from baculo virus transfected insect cells. The constructs comprised the GS-domain and kinase domain of wild-type ALK2 (aa172-499), ALK2 FOP mutant (aa172-499 R206H), ALK3 (aa198-525), ALK5 (aa162-503) and ALK6 (aa168-495).
A kinase selectivity panel which measures substrate peptide phosphorylation was set-up for wild-type ALK2 (aa172-499), ALK2 FOP mutant (aa172-499 R206H), ALK1 (aa166-493), ALK5 (aa162-503) and ALK6 (aa168-495). The technology used for the described assay is based on the separation and quantification of substrate and product in an electrical field. In the course of the kinase reaction the peptide substrate is phosphorylated by a kinase. […] Due to this difference in charge the phosphorylated und unphosphorylated peptides migrate with different velocities in an electrical field.
In the applied method, this separation takes place inside a chip that contains a complex capillary system for simultaneous analysis of 12 samples (“LabChip EZ Reader 12-sipper chip”, Caliper Technologies Corp., Mountain View, USA). In order to allow the detection and quantification of the peptides in the capillary system, the peptides carry a fluorescent label (fluorescein). With this label the peptides can be quantified by fluorescence intensity through the instruments laser and detection system (LC3000, Caliper Life Sciences).
The assays were performed in 384-well, low volume microtiter assay plates in a final reaction volume of 9 ul. Dose-response curves were generated by incubating 10 nM of each kinase together with 2 uM of the fluorescently labeled substrate peptide 5-Fluo-Ahx-[…]-T-[…]-amid (10 mM stock solution in DMSO) in 50 mM Hepes pH 7.5, 0.02% Tween 20, 0.02% BSA, 1 mM DTT, 10 uM Na3VO4, 10 mM ß-Glycerolphosphate, 1 mM MgCl2, 12 mM MnCl2 (ALK1 and ALK6 7 mM) and 15 uM ATP for 60 min at 30° C. in the presence or absence of compound diluted in DMSO.
Kinase reactions were terminated by adding 15 ul STOP buffer (100 mM HEPES pH 7.5, 5% DMSO, 0.1% Caliper coating reagent, 10 mM EDTA, and 0.015% Brij35.
Plates with terminated kinase reactions were transferred to the Caliper LC3000 workstation (Caliper Technologies Corp., Mountain View, USA) for reading. The relative amount of phosphorylated peptide r, was calculated using the heights of the substrate peak, s, and the product peak, p:r=p/(p+s).
IC50 values for a given antagonist correspond to the compound concentration needed to inhibit half of the maximum signal of the kinase reaction.

ALK6 (aa168-495) = ALK6 (aa168-495) (Homo sapiens (Human), UniProt O00238); experiment: Caliper biochemical peptide phosphorylation assay, ALK6; details: 15 uM ATP
[4] = system: HuH7 cells, BMP response element (BRE) luciferase reporter, BMP6 stimulated; experiment: BMP signaling reporter gene assay; format: cell-based; details: Homo sapiens, Huh-7; BMP6 100 ng/ml; read-out: MSD HuH7 cell BMP reporter IC50
Description: A human liver hepatocellular carcinoma cell line (HuH7) stably transfected with a reporter plasmid consisting of the human BMP response element (BRE) from the Id1 promoter fused to a luciferase reporter gene was generated through lentiviral transduction.
Assays were performed in 384-well flat bottom polystyrene microtiter plates (cell culture treated) with sterile lids. The cells were starved through medium exchange in Blasticidine- and FCS-free medium 16 h before the assay. Prior to the assay, cells were detached from the stock flask using trypsin/EDTA and counted. A cell suspension in the same medium without Blasticidin and FCS was prepared. 2×10^4 cells in a total volume of 40 ul were added to each well of a plate already containing serial dilutions of each compound in DMSO (final DMSO concentration 0.5%). […] Assay plates are incubated for another 5 hours at 37° C., 5% CO2 before luciferase levels are measured.
The amount of expressed luciferase is quantified using the Steady-Glo® Luciferase Assay System (Promega #E2520).

Sequence of ALK5 (aa162-503) (P36897 162-503): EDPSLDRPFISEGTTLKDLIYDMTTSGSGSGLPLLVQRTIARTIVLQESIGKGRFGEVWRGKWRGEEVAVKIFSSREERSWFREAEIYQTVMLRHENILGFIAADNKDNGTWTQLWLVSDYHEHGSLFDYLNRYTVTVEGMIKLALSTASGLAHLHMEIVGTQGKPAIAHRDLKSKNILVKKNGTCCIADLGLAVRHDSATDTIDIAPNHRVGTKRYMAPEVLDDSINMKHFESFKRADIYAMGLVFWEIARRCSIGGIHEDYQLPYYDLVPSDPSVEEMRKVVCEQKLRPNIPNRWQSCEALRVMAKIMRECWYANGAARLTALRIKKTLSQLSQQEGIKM
Sequence of ALK1 (aa166-493) (P37023 166-493): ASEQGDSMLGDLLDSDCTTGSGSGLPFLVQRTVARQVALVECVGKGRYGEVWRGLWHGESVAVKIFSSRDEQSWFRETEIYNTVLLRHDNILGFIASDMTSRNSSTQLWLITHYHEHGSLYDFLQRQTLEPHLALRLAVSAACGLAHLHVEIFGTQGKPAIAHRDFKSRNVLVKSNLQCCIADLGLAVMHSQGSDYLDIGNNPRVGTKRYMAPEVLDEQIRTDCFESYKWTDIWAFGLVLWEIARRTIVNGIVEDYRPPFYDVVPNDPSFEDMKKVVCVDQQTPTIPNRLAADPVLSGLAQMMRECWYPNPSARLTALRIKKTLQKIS
T1 sequence (Q04771 172-499): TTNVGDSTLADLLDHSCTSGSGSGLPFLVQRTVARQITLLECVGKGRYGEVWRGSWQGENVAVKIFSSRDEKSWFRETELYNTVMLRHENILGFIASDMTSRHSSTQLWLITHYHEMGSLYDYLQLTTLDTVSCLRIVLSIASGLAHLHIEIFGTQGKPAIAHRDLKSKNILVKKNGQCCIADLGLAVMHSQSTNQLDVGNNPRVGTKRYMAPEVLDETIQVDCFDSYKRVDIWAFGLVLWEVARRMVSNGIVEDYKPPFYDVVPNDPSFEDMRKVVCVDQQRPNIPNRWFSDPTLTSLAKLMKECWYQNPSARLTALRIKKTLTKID
Sequence of ALK2 FOP mutant (aa172-499 R206H) (Q04771 172-499 R206H): as the sequence (Q04771 172-499) above, with R35H counted along it
Sequence of ALK3 (aa198-525) (P36894 198-525): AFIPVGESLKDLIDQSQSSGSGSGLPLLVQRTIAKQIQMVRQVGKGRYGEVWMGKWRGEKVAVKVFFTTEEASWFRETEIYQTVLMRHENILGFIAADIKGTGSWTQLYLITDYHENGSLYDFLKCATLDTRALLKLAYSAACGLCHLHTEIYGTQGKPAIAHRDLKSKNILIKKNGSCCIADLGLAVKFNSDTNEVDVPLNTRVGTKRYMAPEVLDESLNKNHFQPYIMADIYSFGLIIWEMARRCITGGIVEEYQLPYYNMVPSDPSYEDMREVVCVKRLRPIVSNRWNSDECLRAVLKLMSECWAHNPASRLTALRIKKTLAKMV
Sequence of ALK6 (aa168-495) (O00238 168-495): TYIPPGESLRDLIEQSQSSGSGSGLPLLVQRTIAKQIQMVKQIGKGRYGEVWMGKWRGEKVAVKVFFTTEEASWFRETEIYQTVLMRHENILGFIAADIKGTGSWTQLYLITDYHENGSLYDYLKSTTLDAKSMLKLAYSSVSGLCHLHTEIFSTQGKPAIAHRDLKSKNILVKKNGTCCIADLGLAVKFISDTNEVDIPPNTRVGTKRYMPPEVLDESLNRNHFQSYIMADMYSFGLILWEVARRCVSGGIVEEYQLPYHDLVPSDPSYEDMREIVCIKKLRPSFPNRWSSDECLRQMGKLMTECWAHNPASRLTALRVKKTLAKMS

| Structure (SMILES) | IC50 [1] [nM] | IC50 (ALK3 (aa198-525)) [nM] | IC50 [2] [nM] | IC50 [3] [nM] | IC50 (ALK1 (aa166-493)) [nM] | IC50 (ALK5 (aa162-503)) [nM] | IC50 (ALK6 (aa168-495)) [nM] | IC50 [4] [nM] |
| --- | --- | --- | --- | --- | --- | --- | --- | --- |
| CC(C)n1cc(-c2cncc(-c3cnc4c(c3)CC(=O)N4)c2)ccc1=O [Example 41, 5-(1′-Isopropyl-6′-oxo-1′,6′-dihydro-[3,3′-bipyridin]-5-yl)-1H-pyrrolo[2,3-b]pyridin-2(3H)-one] | 490 | 6300 | 470 | 710 | 6400 | > 10000 | > 10000 | 630 |
| CC(C)n1cc(-c2cncc(-c3ccc4c(c3)CC(=O)N4CC3CCC3)c2)ccc1=O [Example 38, 1-(cyclobutylmethyl)-5-(1′-isopropyl-6′-oxo-1′,6′-dihydro-[3,3′-bipyridin]-5-yl)indolin-2-one] | 130 | 540 | 60 | 60 | 640 | 3400 | 1100 | 100 |
| COc1cc(-c2cncc(-c3ccc4c(c3)CC(=O)N4C)c2)cn(C(C)C)c1=O [Example 2, 5-(1′-Isopropyl-5′-methoxy-6′-oxo-1′,6′-dihydro-[3,3′-bipyridin]-5-yl)-1-methylindolin-2-one] | 87 | 520 | 80 | 60 | 410 | 610 | 940 | 50 |
| CC(C)N1C(=O)Cc2cc(-c3cncc(-c4ccc(=O)n(C(C)C)c4)c3)ccc21 [Example 21, 1-Isopropyl-5-(1′-isopropyl-6′-oxo-1′,6′-dihydro-[3,3′-bipyridin]-5-yl)indolin-2-one] | 64 | 570 | 60 | 53 | 360 | 1800 | 720 | 60 |
| CN1C(=O)Cc2cc(-c3cncc(-c4ccc(=O)n(C5CCC5)c4)c3)ccc21 [Example 6, 5-(1′-Cyclobutyl-6′-oxo-1′,6′-dihydro-[3,3′-bipyridin]-5-yl)-1-methylindolin-2-one] | 230 | 3600 | 150 | 180 | 1700 | 5300 | 2900 | 660 |
| COCn1cc(-c2cncc(-c3ccc4c(c3)CC(=O)N4C)c2)ccc1=O [Example 15, 5-(1′-(methoxymethyl)-6′-oxo-1′,6′-dihydro-[3,3′-bipyridin]-5-yl)-1-methylindolin-2-one] | 880 | 9900 | 760 | 740 | 5100 | > 10000 | > 10000 | 1500 |
| CN1C(=O)Cc2cc(-c3cncc(-c4ccc(=O)n(CC(F)(F)F)c4)c3)ccc21 [Example 12, 1-methyl-5-(6′-oxo-1′-(2,2,2-trifluoroethyl)-1′,6′-dihydro-[3,3′-bipyridin]-5-yl)indolin-2-one] | 1500 | > 15100 | 800 | 810 | 6800 | > 10000 | 7000 | 800 |
| CN1C(=O)Cc2cc(-c3cncc(-c4ccc(=O)n(C5CCCC5)c4)c3)ccc21 [Example 8, 5-(1′-cyclopentyl-6′-oxo-1′,6′-dihydro-[3,3′-bipyridin]-5-yl)-1-methylindolin-2-one] | 200 | 2400 | 170 | 120 | 1500 | 9600 | 5300 | 150 |
| CC(C)n1nc(-c2cncc(-c3ccc4c(c3)CC(=O)N4C)c2)ccc1=O [Example 44, 5-(5-(1-isopropyl-6-oxo-1,6-dihydropyridazin-3-yl)pyridin-3-yl)-1-methylindolin-2-one] | 110 | 1000 | 90 | 80 | 670 | 5700 | 3050 | 230 |
| CC(C)n1cc(-c2cncc(-c3ccc4c(c3)C(F)(F)C(=O)N4C)c2)ccc1=O [Example 23, 3,3-Difluoro-5-(1′-isopropyl-6′-oxo-1′,6′-dihydro-[3,3′-bipyridin]-5-yl)-1-methylindolin-2-one] | 1200 | 5800 | 670 | 870 | 5600 | > 10000 | 4500 | 1200 |
| CC(C)n1cc(-c2cncc(-c3ccc4c(c3)CC(=O)N4C)n2)ccc1=O [Example 46, 5-(6-(1-isopropyl-6-oxo-1,6-dihydropyridin-3-yl)pyrazin-2-yl)-1-methylindolin-2-one] | 150 | 930 | 120 | 110 | 620 | 5000 | 2500 | 130 |
| CN1C(=O)Cc2cc(-c3cncc(-c4ccc(=O)n(CC5CCC5)c4)c3)ccc21 [Example 11, 5-(1′-(cyclobutylmethyl)-6′-oxo-1′,6′-dihydro-[3,3′-bipyridin]-5-yl)-1-methylindolin-2-one] | 600 | 7900 | 490 | 470 | 4700 | > 10000 | > 10000 | 640 |
| CC(C)CN1C(=O)Cc2cc(-c3cncc(-c4ccc(=O)n(C(C)C)c4)c3)ccc21 [Example 24, 1-Isobutyl-5-(1′-isopropyl-6′-oxo-1′,6′-dihydro-[3,3′-bipyridin]-5-yl)indolin-2-one] | 67 | 300 | 70 | 60 | 420 | 1900 | 800 | 60 |
| CN1C(=O)Cc2cc(-c3cncc(-c4ccc(=O)n(C)c4)c3)ccc21 [Example 19, 1-methyl-5-(1′-methyl-6′-oxo-1′,6′-dihydro-[3,3′-bipyridin]-5-yl)indolin-2-one] | 2200 | 5400 | 740 | 810 | 4200 | > 10000 | 9300 | 1900 |
| CCC(CC)CN1C(=O)Cc2cc(-c3cncc(-c4ccc(=O)n(C(C)C)c4)c3)ccc21 [Example 40, 1-(2-ethylbutyl)-5-(1′-isopropyl-6′-oxo-1′,6′-dihydro-[3,3′-bipyridin]-5-yl)indolin-2-one] | 94 | 800 | 100 | 80 | 900 | 4200 | 860 | 100 |
| CCC(CC)Cn1cc(-c2cncc(-c3ccc4c(c3)CC(=O)N4C)c2)ccc1=O [Example 13, 5-(1′-(2-ethylbutyl)-6′-oxo-1′,6′-dihydro-[3,3′-bipyridin]-5-yl)-1-methylindolin-2-one] | 680 | 8500 | 620 | 570 | 5300 | > 10000 | > 10000 | 790 |
| CN1C(=O)Cc2cc(-c3cncc(-c4ccc(=O)n(CCC(F)(F)F)c4)c3)ccc21 [Example 16, 1-methyl-5-(6′-oxo-1′-(3,3,3-trifluoropropyl)-1′,6′-dihydro-[3,3′-bipyridin]-5-yl)indolin-2-one] | 1100 | 15000 | 820 | 830 | 8700 | > 10000 | > 10000 | 1200 |
